Calls of active or inactive are those of the source. No cut-off for these calls is given here. Where a SMILES comes first, the peptide text is derived from it. [ ]: non-standard residue; d: D form. αMeP = C[C@@]1(C(=O)O)CCCN1
Experiments:
SH-SY5Y [1] = experiment: Neuroprotective against IFNgamma/LPS stimulated THP1 condition medium-induced neurotoxicity in human SH-SY5Y cells assessed as increase in cytoplasmic IkappaBalpha level pretreated for 1 hr followed by addition of THP1 conditioned medium by western blot analysis; type: functional, cell-based
SH-SY5Y [2] = experiment: Neuroprotective against IFNgamma/LPS stimulated THP1 condition medium-induced neurotoxicity in human SH-SY5Y cells assessed as NO production per 10^6 cells at 100 nM for 1 hr followed by addition of THP1 conditioned medium by griess assay (reference value: 3.75 +/- 0.14 micromol/L); type: functional
[3] = Metabolic stability in human plasma assessed as half life by HPLC analysis; type: ADME, cell-free
SH-SY5Y [4] = experiment: Neuroprotective against IFNgamma/LPS stimulated THP1 condition medium-induced neurotoxicity in human SH-SY5Y cells assessed as NO production per 10^6 cells at 10 nM for 1 hr followed by addition of THP1 conditioned medium by griess assay (reference value: 3.75 +/- 0.14 micromol/L); type: functional
SH-SY5Y [5] = experiment: Neuroprotective against IFNgamma/LPS stimulated THP1 condition medium-induced neurotoxicity in human SH-SY5Y cells assessed as NO production per 10^6 cells at 1 uM for 1 hr followed by addition of THP1 conditioned medium by griess assay (reference value: 3.75 +/- 0.14 micromol/L); type: functional
SH-SY5Y [6] = experiment: Neuroprotective against IFNgamma/LPS stimulated THP1 condition medium-induced neurotoxicity in human SH-SY5Y cells assessed as NO production per 10^6 cells at 10 uM for 1 hr followed by addition of THP1 conditioned medium by griess assay (reference value: 3.75 +/- 0.14 micromol/L); type: functional
SH-SY5Y [7] = experiment: Neuroprotective against IFNgamma/LPS stimulated THP1 condition medium-induced neurotoxicity in human SH-SY5Y cells assessed as NO production per 10^6 cells at 100 uM for 1 hr followed by addition of THP1 conditioned medium by griess assay (reference value: 3.75 +/- 0.14 micromol/L); type: functional
SH-SY5Y [8] = experiment: Neuroprotective against IFNgamma/LPS stimulated THP1 condition medium-induced neurotoxicity in human SH-SY5Y cells assessed as decrease in iNOS expression at 100 uM pretreated for 1 hr followed by addition of THP1 conditioned medium by western blot analysis; type: functional, cell-based
SH-SY5Y [9] = experiment: Neuroprotective against IFNgamma/LPS stimulated THP1 condition medium-induced neurotoxicity in human SH-SY5Y cells assessed as increase in nNOS expression at 100 uM pretreated for 1 hr followed by addition of THP1 conditioned medium by western blot analysis; type: functional, cell-based
SH-SY5Y [10] = experiment: Cytotoxicity against human SH-SY5Y cells at 0.1 to 100 uM after 24 hrs by MTT assay; type: cell-based
SH-SY5Y [11] = experiment: Neuroprotective activity against human SH-SY5Y cells assessed as inhibition of IFNgamma/LPS stimulated THP1 condition medium-induced cytotoxicity measured as cell viability at 100 uM for 1 hr followed by addition of THP1 conditioned medium for 24 hrs by LDH assay in presence of 1 uM dexamethasone; type: functional, cell-based
SH-SY5Y [12] = experiment: Neuroprotective activity against human SH-SY5Y cells assessed as inhibition of IFNgamma/LPS stimulated THP1 condition medium-induced cytotoxicity measured as cell viability at 100 uM for 1 hr followed by addition of THP1 conditioned medium for 24 hrs by LDH assay relative to control; type: functional
SH-SY5Y [13] = experiment: Effect on NO production in human SH-SY5Y cells by greiss assay; type: functional, cell-based
SH-SY5Y [14] = experiment: Neuroprotective against IFNgamma/LPS stimulated THP1 condition medium-induced neurotoxicity in human SH-SY5Y cells assessed as decrease in apoptosis at 100 uM for 1 hr followed by addition of THP1 conditioned medium by annexinV/PI staining based flow cytometry; type: functional, cell-based
SH-SY5Y [15] = experiment: Neuroprotective against IFNgamma/LPS stimulated THP1 condition medium-induced neurotoxicity in human SH-SY5Y cells assessed as reduced iNOS activity at 100 uM pretreated for 1 hr followed by addition of THP1 conditioned medium; type: functional, cell-based
SH-SY5Y [16] = experiment: Neuroprotective against IFNgamma/LPS stimulated THP1 condition medium-induced neurotoxicity in human SH-SY5Y cells assessed as increase in cytoplasmic IkappaBalpha level at 100 uM pretreated for 1 hr followed by addition of THP1 conditioned medium by western blot analysis; type: functional, cell-based
SH-SY5Y [17] = experiment: Neuroprotective against IFNgamma/LPS stimulated THP1 condition medium-induced neurotoxicity in human SH-SY5Y cells assessed as inhibition of RelA/p65 nuclear translocation at 100 uM pretreated for 1 hr followed by addition of THP1 conditioned medium by western blot analysis; type: functional, cell-based
SH-SY5Y [18] = experiment: Neuroprotective against IFNgamma/LPS stimulated THP1 condition medium-induced neurotoxicity in human SH-SY5Y cells assessed as increase in nNOS activity at 100 uM pretreated for 1 hr followed by addition of THP1 conditioned medium; type: functional, cell-based

CN1C(=O)[C@]23CC4=CC=C[C@H](O)[C@H]4N2C(=O)[C@@]1(CO)SS3
Activity (SH-SY5Y [1]): Active

N=C(N)NCCC[C@H](NC(=O)[C@@H]1CCCN1C(=O)CN)C(=O)O (H-Gly-Pro-Arg-OH)
Activity (SH-SY5Y [2]): 3.74 µmol/L | half-life [3]: 1.58 h | Activity (SH-SY5Y [4]): 3.72 µmol/L | Activity (SH-SY5Y [5]): 3.68 µmol/L | Activity (SH-SY5Y [6]): 3.05 µmol/L | Activity (SH-SY5Y [7]): 2.64 µmol/L

C[C@@]1(C(=O)N[C@@H](CCCNC(=N)N)C(=O)O)CCCN1C(=O)CN (H-Gly-[αMeP]-Arg-OH)
inhibition (SH-SY5Y [8]): Active | Activity (SH-SY5Y [9]): Active | Activity (SH-SY5Y [10]): Non-toxic | Activity (SH-SY5Y [11]): Active | Activity (SH-SY5Y [12]): 70% | Activity (SH-SY5Y [2]): 3.71 µmol/L | Activity (SH-SY5Y [13]): inactive | inhibition (SH-SY5Y [14]): Active | half-life [3]: 132 h | Activity (SH-SY5Y [4]): 3.78 µmol/L | Activity (SH-SY5Y [5]): 3.72 µmol/L | inhibition (SH-SY5Y [15]): Active | Activity (SH-SY5Y [6]): 3.57 µmol/L | Activity (SH-SY5Y [7]): 2.92 µmol/L

C[C@@]1(C(=O)N[C@@H](Cc2cnc[nH]2)C(=O)O)CCCN1C(=O)CN (H-Gly-[αMeP]-His-OH)
inhibition (SH-SY5Y [8]): Active | Activity (SH-SY5Y [9]): Active | Activity (SH-SY5Y [10]): Non-toxic | Activity (SH-SY5Y [11]): Active | Activity (SH-SY5Y [12]): 70% | Activity (SH-SY5Y [16]): Active | Activity (SH-SY5Y [2]): 3.76 µmol/L | Activity (SH-SY5Y [13]): inactive | inhibition (SH-SY5Y [14]): Active | inhibition (SH-SY5Y [17]): Active | half-life [3]: 118 h | Activity (SH-SY5Y [4]): 3.81 µmol/L | Activity (SH-SY5Y [5]): 3.74 µmol/L | inhibition (SH-SY5Y [15]): Active | Activity (SH-SY5Y [18]): Active | Activity (SH-SY5Y [6]): 2.96 µmol/L | Activity (SH-SY5Y [7]): 2.38 µmol/L

C[C@@]1(C(=O)N[C@@H](CCCCN)C(=O)O)CCCN1C(=O)CN (H-Gly-[αMeP]-Lys-OH)
inhibition (SH-SY5Y [8]): Active | Activity (SH-SY5Y [9]): Active | Activity (SH-SY5Y [10]): Non-toxic | Activity (SH-SY5Y [11]): Active | Activity (SH-SY5Y [12]): 70% | Activity (SH-SY5Y [2]): 3.68 µmol/L | Activity (SH-SY5Y [13]): inactive | inhibition (SH-SY5Y [14]): Active | half-life [3]: 51.6 h | Activity (SH-SY5Y [4]): 3.7 µmol/L | Activity (SH-SY5Y [5]): 3.74 µmol/L | inhibition (SH-SY5Y [15]): Active | Activity (SH-SY5Y [6]): 2.98 µmol/L | Activity (SH-SY5Y [7]): 2.65 µmol/L

Reference: ChEMBL document CHEMBL3751843, “Development of glycine-α-methyl-proline-containing tripeptides with neuroprotective properties” (Eur J Med Chem, 2016)
